Test results taken from patent US3963707A, “Novel N-nitroso compounds, compositions containing such compounds, processes for their preparation and methods of treatment therewith, and novel intermediates” (Aktiebolaget Leo, priority 1973, dated 1976).

Test system: Hepatoma AH 130
Experiment: in vivo
Set-up: species or system SPF Wistar rats
Conditions: additional compounds, result in words
Text: The high activity against tumours is further illustrated in these experiments by comparisons with known antitumour agents used in the therapy. The therapeutic indexes (T.I.), i.e. the ratios LD50/ED50, are in all comparisons much more favourable with the compounds of the present invention.
LD50 is the dose that caused a 50 percent lethality of the animals, ED50 is the dose that caused a 50 percent reduction of tumour size.
The experimental design and the interpretation of the results have been in accordance with the standards set by the CCNSC (Cancer Chemotherapy Reports, January 1959 and December 1962), and by the DR&D (Cancer Chemotherapy Reports, September 1972, Vol. 3, No. 2).
The way of administration is by the intraperitoneal route (i.p.) in each case.
Experimental animals: SPF Wistar rats.
Tumour implant: 5 × 10^6 tumour cells i.p.
Therapy: One injection i.p. on the day following implantation.
Termination: The animals are killed on the 8th day.
Evaluation: Weights of tumours of test animals compared with those of control animals.

| Compound | anti-tumor activity |
| --- | --- |
| C[C@]12C=CC(=O)C=C1CC[C@@H]1[C@@H]2[C@@H](O)C[C@@]2(C)[C@H]1CC[C@]2(O)C(=O)COC(=O)N(C(=O)N(CCCl)N=O)C1CCCCC1 [prednisolone-21-/N^2-cyclohexyl-N^4-(2-chloroethyl)-N-nitroso allophanate/] | exhibit anti-tumor activity |
| C[C@H]1C[C@H]2[C@@H]3CC[C@H](OC(=O)N(CCCl)N=O)[C@@]3(C)CC[C@@H]2[C@@]2(C)CCC(=O)C=C12 [6α-methyltestosterone-17β-N-(2-chloroethyl)-N-nitroso carbamate] | exhibit anti-tumor activity |
| C#C[C@]1(OC(=O)N(CCCl)N=O)CC[C@H]2[C@@H]3CCC4=C[C@@H](O)CC[C@@H]4[C@H]3CC[C@@]21C [ethynodiol-17β-N-(2-chloroethyl)-N-nitroso carbamate] | exhibit anti-tumor activity |
| C[C@]12CC[C@@H]3c4ccc(OC(=O)N(CCCl)N=O)cc4CC[C@H]3[C@@H]1CC[C@@H]2OP(=O)(O)Oc1ccccc1 [estradiol-17β-phenyl hydrogen phosphate-3-N-(2-chloroethyl)-N-nitroso carbamate] | exhibit anti-tumor activity |
| C[C@]12CC[C@H]3[C@@H](CC=C4C[C@@H](OC(=O)N(CCCl)N=O)CC[C@@]43C)[C@@H]1CC[C@@H]2OC(=O)CCC(=O)O [androstenediol-17β-hemisuccinate-3β-N-(2-chloroethyl)-N-nitroso carbamate] | exhibit anti-tumor activity |
| C[C@]12CC[C@H]3[C@@H](CC=C4C[C@@H](OC(=O)N(CCCl)N=O)CC[C@@]43C)[C@@H]1CC[C@@H]2OP(=O)(O)Oc1ccccc1 [androstenediol-3β-/N-(2-chloroethyl)-N-nitroso carbamate/-17β-phenyl hydrogen phosphate] | exhibit anti-tumor activity |
| CCOP(=O)(O)O[C@H]1CC[C@H]2[C@@H]3CC=C4C[C@@H](OC(=O)N(CCCl)N=O)CC[C@]4(C)[C@H]3CC[C@]12C [androstenediol-3β-/N-(2-chloroethyl)-N-nitroso carbamate/-17β-ethyl hydrogen phosphate] | exhibit anti-tumor activity |
| CC(C)CCC[C@@H](C)[C@H]1CC[C@H]2[C@@H]3CC=C4C[C@@H](OC(=O)N(C)C(=O)N(CCCl)N=O)CC[C@]4(C)[C@H]3CC[C@]12C [cholesterol-3β-/N^2-methyl-N^4-(2-chloroethyl)-N^4-nitroso allophanate/] | exhibit anti-tumor activity |
| CCCCCCOc1ccc(CCC(=O)O[C@H]2CC[C@H]3[C@@H]4CC=C5C[C@@H](OC(=O)N(CCCl)N=O)CC[C@]5(C)[C@H]4CC[C@]23C)cc1 [androstenediol-17β-p-hexoxyphenylpropionate-3β-N-(2 -chloroethyl)-N-nitroso carbamate] | exhibit anti-tumor activity |
| C#C[C@]1(OC(C)=O)CC[C@H]2[C@@H]3CCC4=C[C@@H](OC(=O)N(CCCC)C(=O)N(CCCl)N=O)CC[C@@H]4[C@H]3CC[C@@]21C [ethynodiol-17β-acetate-3β-/N^2-n-butyl-N^4-(2-chloroethyl)-N^4-nitroso allophanate/] | exhibit anti-tumor activity |
| C#C[C@]1(OC(C)=O)CC[C@H]2[C@@H]3CCC4=C[C@@H](OC(=O)N(C(=O)N(CCCl)N=O)c5ccccc5)CC[C@@H]4[C@H]3CC[C@@]21C [ethynodiol-17β-acetate-3β-/N^2-phenyl-N^4-(2-chloroethyl)-N-nitroso allophanate/] | exhibit anti-tumor activity |
| CC(C)CCC[C@@H](C)[C@H]1CC[C@H]2[C@@H]3CC=C4C[C@@H](OC(=O)N(C(=O)N(CCCl)N=O)c5ccccc5)CC[C@]4(C)[C@H]3CC[C@]12C [cholesterol-3β-/N^2-phenyl-N^4-(2-chloroethyl)-N^4-nitroso allophanate/] | exhibit anti-tumor activity |
| CC(C)CCC[C@@H](C)[C@H]1CC[C@H]2[C@@H]3CC=C4C[C@@H](OC(=O)N(CCF)N=O)CC[C@]4(C)[C@H]3CC[C@]12C [cholesterol-3β-N-(2-fluoroethyl)-N-nitroso carbamate] | exhibit anti-tumor activity |
| C[C@]12CC[C@H]3[C@@H](CC=C4C[C@@H](OC(=O)N(CCCl)N=O)CC[C@@]43C)[C@@H]1CC[C@@H]2OS(=O)(=O)O [androstenediol-3β-/N-(2-chloroethyl)-N-nitroso carbamate/-17β-sodium sulphate] | exhibit anti-tumor activity |
| C[C@]12CCC(=O)C=C1CC[C@H]1[C@@H]3CC[C@](C)(OC(=O)N(CCCl)N=O)[C@@]3(C)C[C@H](O)[C@@]12F [9α-fluoro-11β-hydroxy-17α-methyltestosterone-17β-N-(2-chloroethyl)-N-nitroso carbamate] | exhibit anti-tumor activity |
| CC(C)CCC[C@@H](C)[C@H]1CC[C@H]2[C@@H]3CC=C4C[C@@H](OC(=O)NC(=O)N(CCCl)N=O)CC[C@]4(C)[C@H]3CC[C@]12C [cholesterol-3β-/N^4-(2-chloroethyl)-N^4-nitroso allophanate/] | exhibit anti-tumor activity |

| Compound | anti-tumor activity |
| --- | --- |
| Cc1ccc(N(C(=O)Oc2ccc3c(c2)CC[C@@H]2[C@@H]3CC[C@]3(C)C(=O)CC[C@@H]23)C(=O)N(CCCl)N=O)cc1 [estrone-3-/N^2-(4-methylphenyl)-N^4-(2-chloroethyl)-N^4-nitroso allophanate/] | exhibit anti-tumor activity |
| C[C@]12C=CC(=O)C=C1CC[C@@H]1[C@@H]2[C@@H](OC(=O)N(CCCl)N=O)C[C@@]2(C)[C@H]1CC[C@]2(O)C(=O)CO [prednisolone-11β-N-(2-chloroethyl)-N-nitroso carbamate] | exhibit anti-tumor activity |
| CC(=O)O[C@H]1C(=O)C[C@H]2[C@@H]3CCc4cc(OC(=O)N(CCCl)N=O)ccc4[C@H]3CC[C@]12C [estra-1,3,5(10)-triene-3,17β-diol-16-one,17β-acetate-3-N-(2-chloroethyl)-N-nitroso carbamate] | exhibit anti-tumor activity |
| C[C@]12CC[C@H]3[C@@H](CC=C4C[C@@H](OC(=O)N(CCCl)N=O)CC[C@@]43C)[C@@H]1CC[C@@H]2OC(=O)c1ccccc1 [androstenediol-17β-benzoate-3β-N-(2-chloroethyl)-N-nitroso carbamate] | exhibit anti-tumor activity |
| CC(C)[C@@H](C)/C=C/[C@@H](C)[C@H]1CC[C@H]2C3=CC=C4C[C@@H](OC(=O)N(CCCl)N=O)CC[C@]4(C)[C@H]3CC[C@]12C [ergosterol-3β-N-(2-chloroethyl)-N-nitroso carbamate] | exhibit anti-tumor activity |
| CC(=O)[C@@]1(OC(=O)N(CCCl)N=O)CC[C@H]2[C@@H]3C=C(Cl)C4=CC(=O)CC[C@]4(C)[C@H]3CC[C@@]21C [6-chloro-6-dehydro-17α-hydroxyprogesterone,17α-N-(2-chloroethyl)-N-nitroso carbamate] | exhibit anti-tumor activity |
| CC(=O)[C@H]1CC[C@H]2[C@@H]3CC=C4C[C@@H](OC(=O)N(C)C(=O)N(CCCl)N=O)CC[C@]4(C)[C@H]3CC[C@]12C [pregnenolone-3β-/N^2-methyl-N^4-(2-chloroethyl)-N^4-nitroso allophanate/] | exhibit anti-tumor activity |
| C#C[C@]1(OC(C)=O)CC[C@H]2[C@@H]3CCC4=C[C@@H](OC(=O)NC(=O)N(CCCl)N=O)CC[C@@H]4[C@H]3CC[C@@]21C [ethynodiol-17β-acetate-3β-/N^4-(2-chloroethyl)-N^4-nitroso allophanate/] | exhibit anti-tumor activity |
| COc1ccc2c(c1)CC[C@@H]1[C@@H]2CC[C@]2(C)[C@@H](OC(=O)N(C)C(=O)N(CCCl)N=O)CC[C@@H]12 [estradiol-3-methylether-17β-/N^2-methyl-N^4-(2-chloroethyl)-N^4-nitroso allophanate] | exhibit anti-tumor activity |
| C#C[C@]1(OC(=O)N(CCCl)N=O)CC[C@H]2[C@@H]3CCC4=C[C@@H](OP(=O)(O)Oc5ccccc5)CC[C@@H]4[C@H]3CC[C@@]21C [ethynodiol-17β-N-(2-chloroethyl)-N-nitroso carbamate-3β-phenylhydrogen phosphate] | exhibit anti-tumor activity |
| CCOP(=O)(O)O[C@H]1CC[C@H]2[C@@H]3CCc4cc(OC(=O)N(CCCl)N=O)ccc4[C@H]3CC[C@]12C [estradiol-17β-ethyl hydrogen phosphate-3-N-(2-chloroethyl)-N-nitroso carbamate] | exhibit anti-tumor activity |
| CC(=O)[C@H]1CC[C@H]2[C@@H]3CC=C4C[C@@H](OC(=O)N(C(=O)N(CCCl)N=O)c5ccccc5)CC[C@]4(C)[C@H]3CC[C@]12C [pregnenolone-3β-/N^2-phenyl-N^4-(2-chloroethyl)-N^4-nitroso allophanate/] | exhibit anti-tumor activity |
| C[C@@]12C=CC[C@H]1[C@@H]1CCc3cc(OC(=O)N(CCCl)N=O)ccc3[C@H]1CC2 [estra-1,3,5(10),16-tetraen-3-ol,3-N-(2-chloroethyl)-N-nitroso carbamate] | exhibit anti-tumor activity |
| CC(=O)O[C@H]1CC[C@H]2[C@@H]3CCc4cc(OC(=O)N(CCF)N=O)ccc4[C@H]3CC[C@]12C [estradiol-17β-acetate-3-N-(2-fluoroethyl)-N-nitroso carbamate] | exhibit anti-tumor activity |
| C#C[C@]1(OC(C)=O)CC[C@H]2[C@@H]3CCC4=C[C@@H](OC(=O)N(C(=O)N(CCCl)N=O)C5CCC(C)CC5)CC[C@@H]4[C@H]3CC[C@@]21C (stereo partly drawn) [ethynodiol-17β-acetate-3β-/N^2-(4-methylcyclohexyl)-N^4-(2-chloroethyl)-N^4-nitroso allophanate/] | exhibit anti-tumor activity |
